Calls of active or inactive are those of the source. The calls are words filed in the database; no cut-off is given here.
Assays:
[1] = molecular target: Oxysterols receptor LXR-beta (Homo sapiens, UniProt P55055); experiment: Displacement of [3H]N-(4-(1,1,1,3,3,3-hexafluoro-2-hydroxypropan-2-yl)phenyl)-N-methylbenzenesulfonamide from LXRbeta by scintillation proximity assay
[2] = molecular target: T1, Oxysterols receptor LXR-alpha (Homo sapiens) (UniProt Q13133); experiment: (§1) Displacement of [3H]N-(4-(1,1,1,3,3,3-hexafluoro-2-hydroxypropan-2-yl)phenyl)-N-methylbenzenesulfonamide from LXRalpa by scintillation proximity assay
T1 sequence (whole entry): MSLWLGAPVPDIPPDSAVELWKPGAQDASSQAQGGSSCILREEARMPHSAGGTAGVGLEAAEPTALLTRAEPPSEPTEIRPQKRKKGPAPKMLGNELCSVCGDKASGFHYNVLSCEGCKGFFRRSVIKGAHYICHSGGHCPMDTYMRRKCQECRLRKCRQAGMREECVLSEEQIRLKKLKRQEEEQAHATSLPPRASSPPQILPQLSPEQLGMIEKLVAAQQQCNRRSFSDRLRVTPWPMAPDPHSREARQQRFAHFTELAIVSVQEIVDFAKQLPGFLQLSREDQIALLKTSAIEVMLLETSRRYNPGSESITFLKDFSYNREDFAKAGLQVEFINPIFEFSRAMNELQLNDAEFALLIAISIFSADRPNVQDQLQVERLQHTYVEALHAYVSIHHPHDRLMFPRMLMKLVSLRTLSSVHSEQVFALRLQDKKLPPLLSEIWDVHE

[3] = molecular target: T2, Oxysterols receptor LXR-alpha (Homo sapiens, UniProt Q13133); experiment: as §1
T2 sequence (Q13133 whole entry): T1 sequence (whole entry)

Chain of Oxysterols receptor LXR-beta (P55055 whole entry): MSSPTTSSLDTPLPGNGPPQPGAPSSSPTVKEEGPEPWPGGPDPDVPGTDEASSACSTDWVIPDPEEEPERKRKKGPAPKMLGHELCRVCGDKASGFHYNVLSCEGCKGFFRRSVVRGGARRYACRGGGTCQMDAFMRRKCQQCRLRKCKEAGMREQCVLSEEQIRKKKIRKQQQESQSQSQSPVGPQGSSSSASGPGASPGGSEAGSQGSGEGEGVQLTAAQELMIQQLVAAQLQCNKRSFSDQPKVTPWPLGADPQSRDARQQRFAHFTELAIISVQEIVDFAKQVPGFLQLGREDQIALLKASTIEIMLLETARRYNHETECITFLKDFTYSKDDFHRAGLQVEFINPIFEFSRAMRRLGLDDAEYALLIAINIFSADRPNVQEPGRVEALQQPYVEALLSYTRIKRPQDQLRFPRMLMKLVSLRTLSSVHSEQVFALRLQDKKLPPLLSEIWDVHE

## CN(c1ccc(C(O)(c2ccc[nH]2)C(F)(F)F)cc1)S(=O)(=O)c1ccccc1 (centres undefined)
[1]
  inhibition: inactive
[2]
  inhibition: inactive

## CCn1cccc1C(O)(c1ccc(N(C)S(=O)(=O)c2ccccc2)cc1)C(F)(F)F (centres undefined)
[1]
  inhibition: inactive
[2]
  inhibition: inactive

## CCCC(c1ccc(N(C)S(=O)(=O)c2ccccc2)cc1)c1cccn1CCOC (centres undefined)
[1]
  inhibition: inactive
[2]
  inhibition: inactive

## COCCn1cccc1C(=O)c1ccc(N(C)S(=O)(=O)c2ccccc2)cc1
[1]
  inhibition: inactive
[2]
  inhibition: inactive

## COCCn1cccc1C(OC)c1ccc(N(C)S(=O)(=O)c2ccccc2)cc1 (centres undefined)
[1]
  inhibition: inactive
[2]
  inhibition: inactive

## COCCn1cccc1C(C)(O)c1ccc(N(C)S(=O)(=O)c2ccccc2)cc1 (centres undefined)
[1]
  inhibition: inactive
[2]
  inhibition: inactive

## CCCCn1cccc1C(O)(c1ccc(N(C)S(=O)(=O)c2ccccc2)cc1)C(F)(F)F (centres undefined)
[1]
  inhibition: inactive
[2]
  inhibition: inactive

## COCCn1cccc1C(C)c1ccc(N(C)S(=O)(=O)c2ccccc2)cc1 (centres undefined)
[1]
  inhibition: inactive
[2]
  inhibition: inactive

## CN(c1ccc(C(O)(c2cccn2C)C(F)(F)F)cc1)S(=O)(=O)c1ccccc1 (centres undefined)
[1]
  inhibition: inactive
[2]
  inhibition: inactive

## CCC(c1ccc(N(C)S(=O)(=O)c2ccccc2)cc1)c1cccn1CCOC (centres undefined)
[1]
  inhibition: inactive
[2]
  inhibition: inactive

## CCCC(O)(c1ccc(N(C)S(=O)(=O)c2ccccc2)cc1)c1cccn1CCOC (centres undefined)
[1]
  inhibition: inactive
[2]
  inhibition: inactive

## COCCn1cccc1C(O)c1ccc(N(C)S(=O)(=O)c2ccccc2)cc1 (centres undefined)
[1]
  inhibition: inactive
[2]
  inhibition: inactive

## CN(c1ccc(C(O)(c2cccn2CCCO)C(F)(F)F)cc1)S(=O)(=O)c1ccccc1 (centres undefined)
[1]
  inhibition: inactive
[2]
  inhibition: inactive

## COCCn1cccc1C(CO)c1ccc(N(C)S(=O)(=O)c2ccccc2)cc1 (centres undefined)
[1]
  inhibition: inactive
[2]
  inhibition: inactive

## CN(c1ccc(C(O)(c2cccn2CCO)C(F)(F)F)cc1)S(=O)(=O)c1ccccc1 (centres undefined)
[1]
  inhibition: inactive
[2]
  inhibition: inactive

## CCCCCCn1cccc1C(O)(c1ccc(N(C)S(=O)(=O)c2ccccc2)cc1)C(F)(F)F (centres undefined)
[1]
  inhibition: inactive
[2]
  inhibition: inactive

## CCCn1cccc1C(O)(c1ccc(N(C)S(=O)(=O)c2ccccc2)cc1)C(F)(F)F (centres undefined)
[1]
  inhibition: inactive
[2]
  inhibition: inactive

## CCC(O)(c1ccc(N(C)S(=O)(=O)c2ccccc2)cc1)c1cccn1CCOC (centres undefined)
[1]
  inhibition: inactive
[2]
  inhibition: inactive

## COCCn1cccc1Cc1ccc(N(C)S(=O)(=O)c2ccccc2)cc1
[1]
  inhibition: inactive
[2]
  inhibition: inactive

## CCC(C)n1cccc1C(O)(c1ccc(N(C)S(=O)(=O)c2ccccc2)cc1)C(F)(F)F (centres undefined)
[1]
  inhibition: inactive
[2]
  inhibition: inactive

## COC(c1ccc(N(C)S(=O)(=O)c2ccccc2)cc1)(c1cccn1Cc1ccccc1)C(F)(F)F (racemic)
[1]
  IC50: > 10 µM
[3]
  IC50: > 10 µM

## CCOC(c1ccc(N(C)S(=O)(=O)c2ccccc2)cc1)c1cccn1CCOC (centres undefined)
[1]
  inhibition: inactive
[2]
  inhibition: inactive

— ChEMBL document CHEMBL2010763, “Discovery of a new binding mode for a series of liver X receptor agonists” (Bioorg Med Chem Lett, 2012)
